Entries after “also recorded” stand apart in the source; their conditions may differ.
Columns and labels:
human CB2 [1] = target: T1, human CB2 (Homo sapiens, UniProt P34972); assay: Forskolin-stimulated cAMP accumulation (cyclase), HEK hCB2; format: cell-based; set-up: expressed in transfected cells; time of inhibition of forskolin-stimulated cAMP accumulation: dose or concentration left out as unconfirmed
mouse CB2 receptors [2] = target: T2, mouse CB2 receptors (Mus musculus, UniProt P47936); assay: Forskolin-stimulated cAMP accumulation (cyclase), HEK mCB2; format: cell-based; settings: for Emax: read-out: Cyclase Emax
T2 construct: expressed in transfected cells

[3] = tested on: naloxone-precipitated opioid withdrawal; assay: Naloxone-precipitated opioid withdrawal in paclitaxel-treated mice; format: in vivo, mouse
Protocol: Alter the last injection of morphine (on day 28 for two-phase treatments, on day 13 for coadministration treatment), we challenged WT or CB2KO mice from experiments 2, 3, and 4 with vehicle, followed 30 minutes later by naloxone (5 mg/kg i.p.) to precipitate opioid receptor-mediated withdrawal. Mice were video-recorded for subsequent scoring of withdrawal-like behaviors for a 30-minute interval after challenge with vehicle or naloxone.
Mice were video-taped, and the number of jumps was scored in 5-minute intervals for a total observation period of 30 minutes after challenge with either saline or naloxone (5 mg/kg i.p.).

CB1 = CB1 (Homo sapiens, UniProt P21554); settings: at 100 μM; cited from earlier work
[4] = tested on: joint pain induced by intra-articular monoiodoacetic acid; settings: 0.3 mg/kg p.o.; cited from earlier work
human CB2 [5] = target: T1, human CB2; settings: at 20 nM; cited from earlier work
[6] = tested on: paclitaxel-induced cold allodynia; assay: Paclitaxel-induced cold allodynia (acetone); format: in vivo, mouse; settings: for cold allodynia, chronic phase 1 treatment: 3 mg/kg per day i.p.×12 days
Protocol: In all studies, the experimenter was blinded to the treatment condition, and mice were randomly assigned to experimental conditions. Paclitaxel (4 mg/kg i.p.) was administered four times on alternate days (cumulative dose, 16 mg/kg i.p.) to induce neuropathic pain as described previously by our group (Deng et al., 2015). Control mice received an equal volume of cremophor-vehicle. Development of paclitaxel-induced allodynia was assessed on day 0, 4, 7, 11, and 14.
Effects of pharmacologic manipulations were assessed at 30 minutes after drug administration during the maintenance phase of paclitaxel-induced neuropathy (i.e., beginning day 18-20 after initial paclitaxel injection).
In experiments 2 and 3, pharmacologic manipulations were performed once daily for 12 consecutive days in each of the two phases of chronic treatment. Four days separated phase 1 and phase 2 chronic dosing in all studies comprising two phases of chronic dosing. Experiments 2 and 3 were performed concurrently using overlapping cohorts that were tested with a single vehicle (phase 1), vehicle (phase 2) group.
We then assessed the antiallodynic efficacy of chronic systemic administration of vehicle or morphine (10 mg/kg per day i.p.×12 days) administered during phase 2 in the same animals. Responsiveness to mechanical and cold stimulation was evaluated on treatment days 1, 4, 8, and 12 during phase 1 and on treatment days 16, 19, 23, and 27 during phase 2 (i.e., phase 2 started on day 16).
In experiment 4, we evaluated the impact of coadministration of morphine (10 mg/kg i.p.×12 days) with a submaximal dose of LY 2828360 (0.1 mg/kg per day i.p.×12 days) in WT and CB2 KO mice.
Response time (seconds) spent attending to (i.e., elevating, licking, biting, or shaking) the paw stimulated with acetone (Sigma-Aldrich) was measured in triplicate for each paw to assess cold allodynia as previously published. An acetone bubble (approximately 5 to 6 p.1) formed at the end of a blunt 1-ml syringe hub was gently applied to the plantar surface of the hind paw. Care was taken not to apply mechanical stimulation to the hind paw with the syringe itself. The total time the animal spent attending to the acetone-stimulated paw (i.e., elevation, shaking, or licking) was recorded over 1 minute after acetone application. Acetone was applied three times to each paw with a 3-minute interval between applications. Values for each animal were calculated as the mean of six determinations of acetone responsiveness derived from each mouse.

mouse CB2 receptors [7] = target: T2, mouse CB2 receptors; assay: On-cell western for receptor internalization, HEK mCB2; format: cell-based
[8] = in vivo; cited from earlier work
human CB2 [9] = target: T1, human CB2; assay: Myo-inositol phosphate-1 (IP1) accumulation, HEK hCB2; format: cell-based; set-up: expressed in transfected cells; settings: via human CB2
[10] = paclitaxel-treated WT mice, naloxone 5 mg/kg i.p.
[11] = WT mice, 3 mg/kg per day i.p.×12 days after phase 1 morphine

T2 sequence (P47936 whole entry): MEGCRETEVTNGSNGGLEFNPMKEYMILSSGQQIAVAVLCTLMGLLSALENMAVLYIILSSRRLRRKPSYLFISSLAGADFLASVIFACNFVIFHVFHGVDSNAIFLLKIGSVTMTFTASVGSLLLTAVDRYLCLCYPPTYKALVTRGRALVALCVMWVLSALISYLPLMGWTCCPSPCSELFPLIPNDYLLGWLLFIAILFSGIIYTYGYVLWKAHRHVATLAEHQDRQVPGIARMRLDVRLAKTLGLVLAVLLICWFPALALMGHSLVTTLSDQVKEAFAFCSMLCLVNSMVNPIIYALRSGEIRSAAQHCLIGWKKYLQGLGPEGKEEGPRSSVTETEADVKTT
T1 sequence (P34972 whole entry): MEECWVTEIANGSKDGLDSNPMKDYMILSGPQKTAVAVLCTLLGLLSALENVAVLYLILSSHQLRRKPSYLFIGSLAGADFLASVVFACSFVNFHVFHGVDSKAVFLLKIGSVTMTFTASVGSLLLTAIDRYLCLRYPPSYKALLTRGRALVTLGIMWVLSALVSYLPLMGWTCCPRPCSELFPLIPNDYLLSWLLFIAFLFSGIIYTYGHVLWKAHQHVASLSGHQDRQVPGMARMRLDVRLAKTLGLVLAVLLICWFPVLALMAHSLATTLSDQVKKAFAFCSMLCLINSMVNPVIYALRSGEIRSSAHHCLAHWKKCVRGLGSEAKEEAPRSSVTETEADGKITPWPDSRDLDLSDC
CB1, sequence (P21554 whole entry, species assumed): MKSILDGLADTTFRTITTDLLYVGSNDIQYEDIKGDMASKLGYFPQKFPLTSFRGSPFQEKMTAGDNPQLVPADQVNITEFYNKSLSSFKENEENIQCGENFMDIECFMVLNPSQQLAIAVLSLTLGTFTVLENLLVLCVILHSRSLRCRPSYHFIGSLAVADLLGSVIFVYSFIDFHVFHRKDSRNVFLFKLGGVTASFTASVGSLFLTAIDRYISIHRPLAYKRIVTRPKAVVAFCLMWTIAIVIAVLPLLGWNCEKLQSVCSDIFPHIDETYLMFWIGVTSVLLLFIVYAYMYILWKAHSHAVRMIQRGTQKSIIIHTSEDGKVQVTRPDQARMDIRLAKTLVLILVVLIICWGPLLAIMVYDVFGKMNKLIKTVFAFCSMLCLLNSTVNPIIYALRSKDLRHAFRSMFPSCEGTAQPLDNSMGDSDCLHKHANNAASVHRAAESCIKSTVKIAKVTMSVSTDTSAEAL

In the case of Cc1nc(N2CCN(C)CC2)c2nc(-c3ccccc3Cl)n(C3CCOCC3)c2n1 [LY2828360, 8-(2-chlorophenyl)-2-methyl-6-(4-methylpiperazin-1-yl)-9-(tetrahydro-2H-pyran-4-yl)-9H-purine], the “inhibition of forskolin-stimulated cAMP accumulation” value (human CB2 [1]; hCB2, 5 minutes of treatment) is reported as “had no effect”, the “inhibition of forskolin-stimulated cAMP accumulation” value (human CB2 [1]; hCB2, 35 minutes) is reported as “potent and efficacious agonist” and the “inhibition of forskolin-stimulated cAMP accumulation in presence of SR144528” value (human CB2 [1]; hCB2, 35 minutes) is reported as “completely blocked”. For the same molecule, the “time of inhibition of forskolin-stimulated cAMP accumulation” value (human CB2 [1]; hCB2, time course) was 35 min, the “inhibition of cAMP accumulation after PTX pretreatment” value (human CB2 [1]; hCB2, time course, PTX) was “abolished this effect” and the Emax (human CB2 [1]; human CB2, 35 mins incubation, read-out: Cyclase Emax) was 42.8%. The “forskolin-stimulated cAMP after PTX treatment” value (mouse CB2 receptors [2]; mCB2, 1 μM, PTX 300 ng/ml overnight) was “failed to affect cyclase levels at all time points”, the “time of efficacious inhibition of forskolin-stimulated adenylyl cyclase” value (mouse CB2 receptors [2]; mCB2, 1 μM, time course) was 30 min and the “inhibition of forskolin-stimulated cAMP accumulation in presence of SR144528” value (mouse CB2 receptors [2]; mCB2, 30-minute incubation, 1 μM SR144528 (SR2)) was “completely blocked”. The “inhibition of forskolin-stimulated cAMP accumulation, concentration response” value (mouse CB2 receptors [2]; mCB2, 5 minutes) was “had no effect”, the “inhibition of forskolin-stimulated cAMP accumulation, concentration response” value (mouse CB2 receptors [2]; mCB2, 30 minutes) was “potent, efficacious, and CB2 receptor mediated” and the Emax (mouse CB2 receptors [2]; mouse CB2, 05 mins incubation) was 18.9%. The EC50 (mouse CB2 receptors [2]; mouse CB2, 30 mins incubation, read-out: Cyclase EC50) was 13.6 nM, the Emax (mouse CB2 receptors [2]; mouse CB2, 30 mins incubation) was 53.4% and the “naloxone-precipitated jumps, WT compared with CB2KO mice” value ([3]; coadministration of LY2828360 with morphine, P=0.055) was “trended to produce a lower number of naloxone-precipitated jumps”. For the same molecule, the “number of jumps, LY (1)-Mor (2) vs Veh (1)-Mor (2)” value ([3]; paclitaxel-treated CB2KO mice) was “did not differ”, the “number of jumps, LY (1)-Mor (2) vs Veh (1)-Veh (2)” value ([3]; paclitaxel-treated CB2KO mice) was “trended higher” and the “number of jumps, LY (1)-Mor (2) vs Veh (1)-Mor (2)” value [3, 10] was “did not differ”. The “number of naloxone-precipitated jumps, LY (1)-Mor (2) vs Veh (1)-Veh (2)” value [3, 10] was “did not differ”, the “maximal stimulation of CB1” value (CB1) was 15% and the “efficacy compared with diclofenac” value [4] was “equivalent efficacy”. For the same molecule, the “reversal of pain, incapacitance testing” value [4] was “dose-related reversal of pain”, the “maximal stimulation of CB2” value (human CB2 [5]) was “approximately 87%” and the “time for responsiveness to cold stimulation to return to baseline” value ([6]; 3 mg/kg i.p. acute) was 3 days. For the same molecule, the “cold allodynia, chronic phase 1 treatment” value ([6]; CB2KO mice) was “failed to suppress”, the “cold responsiveness, phase 2 treatment of morphine-tolerant mice” value ([6]; CB2KO mice, 3 mg/kg per day i.p.×12 days after phase 1 morphine) was “did not alter responsiveness to mechanical or cold stimulation” and the “cold allodynia, coadministration with morphine” value ([6]; CB2KO mice, LY2828360 0.1 mg/kg with morphine 10 mg/kg per day×12 days) was “sustained antiallodynic efficacy was absent”. For the same molecule, the “development of tolerance to antiallodynic effect of phase 2 morphine, cold” value ([6]; CB2KO mice, LY2828360 phase 1, morphine phase 2) was “did not block the development of morphine tolerance”, the “paclitaxel-induced cold allodynia, high dose” value ([6]; WT mice, 3 mg/kg i.p. acute) was “fully reversed paclitaxel-induced allodynia and normalized responses to pre-paclitaxel baseline levels” and the “cold allodynia, chronic phase 1 treatment” value ([6]; WT mice) was “markedly suppressed paclitaxel-induced mechanical and cold allodynia throughout the observation interval”. The “cold allodynia, phase 2 treatment of morphine-tolerant mice” value [6, 11] was “fully reversed paclitaxel-induced allodynia and normalized responsiveness to pre-paclitaxel baseline levels”, the “tolerance to phase 2 treatment, cold” value [6, 11] was “tolerance did not develop” and the “cold allodynia, coadministration with morphine” value ([6]; WT mice, LY2828360 0.1 mg/kg per day i.p.×12 days with morphine 10 mg/kg per day×12 days) was “normalized cold responsiveness on days 1 and 4”. For the same molecule, the “development of morphine tolerance under coadministration, cold” value ([6]; WT mice, LY2828360 0.1 mg/kg with morphine 10 mg/kg per day×12 days) was “morphine tolerance failed to develop”, the “development of tolerance to antiallodynic effect of phase 2 morphine, cold” value ([6]; WT mice, LY2828360 3 mg/kg per day×12 days phase 1, morphine 10 mg/kg×12 days phase 2) was “prevented the development of morphine tolerance” and the “paclitaxel-induced cold allodynia, acute dose response” value ([6]; WT mice, acute systemic (i.p.), dose-dependent) was “suppressed”. The “cold allodynia at low doses vs cremophor-vehicle controls” value ([6]; WT mice, doses lower than 0.3 mg/kg i.p.) was “neuropathic pain was prominent”, the “stability of antiallodynic efficacy (tolerance), cold” value ([6]; WT mice, phase 1, 3 mg/kg per day i.p.×12 days) was “stable throughout phase 1 treatment” and the receptor internalization (mouse CB2 receptors [7]; HEK mCB2) was “failed to internalize the receptor; also recorded: less potent and efficacious”. For the same molecule, the EC50 (mouse CB2 receptors [7]; mouse CB2, 90 mins incubation, read-out: Internalization EC50) was 30.7 nM, the Emax (mouse CB2 receptors [7]; mouse CB2, 90 mins incubation, read-out: Internalization Emax) was 19.1% and the “central nervous system (CNS) penetration” value [8] was “good”. For the same molecule, the IP1 accumulation (human CB2 [9]) was “did not affect IP1 accumulation”.

Reference: patent US20190314379A1, “METHODS OF USING CANNABINOID CB2 RECEPTOR AGONIST COMPOSITIONS TO SUPPRESS AND PREVENT OPIOID TOLERANCE AND WITHDRAWAL IN A SUBJECT” (Indiana University Research and Technology Corporation, priority 2018, published 2019)
